# Laboratory results taken from patent US20060067990A1 (priority 2004, published 2006).
# Several values for one entry are separate records, joined by “and”; a condition that tells them apart may be missing. Equal values may be shown once.
# What was measured:
# TSST-1 [1] = format: cell-based, Staphylococcus aureus
# [2] = system: enzymes produced by S. aureus MN8; assay: Breakdown of test compounds by enzymes produced by S. aureus MN8 (GC/MS and liquid chromatography of culture fluid); format: in vitro ADME, Staphylococcus aureus; conditions: Example 7; for GC/MS: concentration of the dominant compound over time / GC/MS: dominant compound found in the sample: culture fluid at 3, 6, 9 and 24 hours
# Description: The test compounds, in the desired concentrations, were placed in 100 mL of a growth medium in a sterile, 500 mL Corning Fleaker (Fisher Scientific, Pittsbury, Pa.). The growth medium and inoculum were prepared as in Example 1.
# The test compounds were added to the growth medium in the amount necessary to obtain the desired final concentration.
# Each fleaker was inoculated with the amount of inoculum determined as described above. The fleakers were capped with sterile aluminum foil and incubated at 35° C. in atmospheric air in a Lab-Line orbital water bath (available from VWR Scientific Products, McGaw Park, Ill.) at 180 rpm. Fifteen milliliter samples were removed at 3, 6, 9, and 24 hours. The optical density (595 nm) of the culture fluid was determined and the culture fluid collected at 24 hours was assayed for the number of colony forming units of S. aureus MN8 using standard plate count procedures.
# In preparation for analysis of the integrity of the test compounds, the culture fluid was centrifuged at 3000 rpm at 2-10° C. for 15 minutes. The supernatant was filter sterilized through an AUTOVIAL 5 syringeless filter, […] pore size (available from Whatman, Inc., Clifton, N.J.). The resulting fluid was frozen at −70° C. in a FISHERBRAND (12 mm×75 mm) polystyrene culture tube (Fisher Scientific, Pittsburgh, Pa.) until chemical analysis could be performed.
# Using an Agilent Technologies 5973N GC/MS, analysis was performed on undiluted solutions at 3, 6, 9, and 24 hours to evaluate the ability of S. aureus MN8 to breakdown the test compounds. Based on the analysis, the control sample, which had no test compounds added, comprised mostly acetic acid at all time intervals.
# Additional analysis of the 6 hour and 24 hour samples was conducted by liquid chromatography. In preparation for the chromatography, the samples were diluted 10 fold with water. The dilutions were then analyzed using an ion exclusion column to achieve the separation. Detection of the compounds was accomplished through UV absorbance at 230 nm.
# TSST-1 [3] = format: cell-based, Staphylococcus aureus; remark: listed apart in the source
# S. aureus MN8 = format: cell-based, Staphylococcus aureus
Compound,GC/MS: concentration of the dominant compound over time [2],GC/MS: dominant compound found in the sample [2],CFU/mL (S. aureus MN8),other results
"OCc1ccccc1 [Benzyl alcohol, benzyl alcohol]",decreased over time,benzyl alcohol,5.02E+08 CFU/mL and 7.52E+08 CFU/mL,"toxin production, pairwise statistical comparison (TSST-1 [1]): significantly decreased toxin production; TSST-1 ng/mL (TSST-1 [3]): 2.46 ng/mL and 2.22 ng/mL and 1.33 ng/mL"
"CCCCCCCCCCCC(=O)OCc1ccccc1 [Benzyl laurate, Benzyl- laurate]",–,–,2.05E+08 CFU/mL and 3.05E+08 CFU/mL and 4.05E+08 CFU/mL and 3.80E+08 CFU/mL,–
"CC(C)CC(NC(=O)c1ccccc1)C(=O)O (racemic) [N-benzoyl-DL-leucine, N-Benzoyl-DL-Leucine]",decreasing concentration over time,benzoic acid as the dominant compound,2.23E+08 CFU/mL and 2.69E+08 CFU/mL,"ELISA: TSST-1 ng per mL (TSST-1 [1]): 7.9 ng per mL and 14.6 ng per mL; liquid chromatography: evidence of breakdown to the active species ([2]; 6 hour and 24 hour samples, UV 230 nm): breakdown to benzoic acid"
myreth-3-myristate [Cetiol 1414E],–,–,1.75E+08 CFU/mL and 2.61E+08 CFU/mL and 2.48E+08 CFU/mL and 2.05E+08 CFU/mL,"% Reduction (TSST-1 [1]): 74% and 69% and 87%; ELISA: TSST-1 (% inhibition) (TSST-1 [1]): (79%); ELISA: TSST-1 Nanograms/mL (TSST-1 [1]): 61 Nanograms/mL; CFU/mL ×10^7 (S. aureus MN8): 22.5 CFU/mL ×10^7 and 25.6 CFU/mL ×10^7 and 17.4 CFU/mL ×10^7; inhibition of the growth of S. aureus, pairwise statistical comparison (S. aureus MN8): significantly greater inhibition of the growth of S. aureus"
"CC(C)C(NC(=O)c1ccccc1)C(=O)O (racemic) [N-benzoyl-DL-valine, N-Benzoyl-DL-Valine]",–,–,1.61E+08 CFU/mL and 2.07E+08 CFU/mL,–
O=C(O)c1ccccc1 [benzoic acid],decreased over time,benzoic acid,–,–
